In patent publication US20230017785A1, “COMPANION DIAGNOSTICS FOR COMPLEMENT INHIBITORS” (THE JOHNS HOPKINS UNIVERSITY, priority 2019, published 2023):
Entries after “also recorded” stand apart in the source; their conditions may differ.

Tests used:
[1] = system: PIGA null TF-1 cells; conditions: previously demonstrated (ref. 46); cited from earlier work
[2] = system: C5b-9 deposition on PIGA null TF-1 cells; assay: Flow cytometry for C5b-9 deposition; assay type: cell-based, human; conditions: for Inhibition of C5b-9 deposition induced by APS patient sera: APS patient sera on PIGA null TF-1 cells; for Inhibition of C5b-9 deposition induced by CAPS sera: CAPS patient sera (e.g. CAPS5); for Inhibition of C5b-9 deposition induced by patient-derived IgG anti-β2GPI antibody: anti-β2GPI from thrombotic APS patient APS21 added to normal human serum
Protocol: Patient derived anti-β2GPI antibodies. Anti-β2GPI antibodies from two patients were affinity purified using a column of Affigel HZ to which purified human β2GPI was coupled (Bio-Rad Laboratories, Hercules, Calif.), as previously described.^43 IgG purity was assessed by reduced SDS-PAGE. Complement activation (C5b-9 deposition and complement dependent cell killing in mHam) induced by patient-derived anti-β2GPI antibodies was tested by adding patient-derived anti-β2GPI antibodies to normal human serum (Cat. NHS, Complement Technology, Inc.).
Flow cytometry for C5b-9 deposition. Flow cytometry was performed to evaluate cell surface deposition of C5b-9 deposition on PIGA null TF1 cells. Cells were seeded in V-bottom 96-well plates (1.2×10^5 cells/well) either in GVB^0.MgEGTA (pH 6.4) buffer for alternative pathway activation or GVB++ (pH 7.4) buffer for classical pathway activation followed by addition of APS patient serum (or patient-derived aPL added to normal human serum). The reaction was incubated for 15 min at 37° C., and stopped by adding FACS buffer/EDTA. Cell pellets were separated by centrifugation at 1900 rpm for 3 minutes at room temperature and then stained with Alexa 488 conjugated anti-C3c antibody (Cat. 4212, Abcam, dilution at 1:100) and […] monoclonal primary antibody (Cat. 66768, Abcam, dilution at 1:100), followed by Alexa 647 conjugated secondary antibody. C5b-9 deposition was measured by a BD FACSCalibur. Ten thousand events were recorded per sample and analyzed using FlowJo software version 10.5.3 (FlowJo Inc). Normal human serum was used as a negative control for flow cytometry assays. We also evaluated the effect of adding anti-C5 mAb and ACH-4471 on C5b-9 deposition.

[3] = system: PIGA null TF-1 cells; assay: Modified Ham (mHam) assay, complement-dependent cell killing; assay type: cell-based, human; conditions: anti-C5 mAb 10 μg, ACH-4471 0.33 μM; for Inhibition of cell killing in the mHam induced by APS sera: APS patient sera; for Inhibition of mHam cell killing induced by CAPS sera: CAPS patient sera

CC(=O)c1nn(CC(=O)N2C[C@H](F)C[C@H]2C(=O)Nc2cccc(Br)n2)c2ccc(-c3cnc(C)nc3)cc12 [ACH-4471]
Blocking complement dependent killing in the mHam with aHUS serum [1]: highly effective in blocking
Inhibition of C5b-9 deposition induced by APS patient sera [2]: less so
Inhibition of C5b-9 deposition induced by APS patient sera ([2]; listed as ACH4471): did not appreciably inhibit; also recorded: did not prevent
Inhibition of C5b-9 deposition induced by CAPS sera [2]: partially blocked; also recorded: partially inhibited
Inhibition of C5b-9 deposition induced by CAPS sera ([2]; listed as ACH4471): partially
Inhibition of C5b-9 deposition induced by aHUS patient sera ([2]; aHUS patient PS-18 sera): completely inhibited
Inhibition of C5b-9 deposition induced by patient-derived IgG anti-β2GPI antibody [2]: partially
Inhibition of C5b-9 deposition induced by patient-derived IgG anti-β2GPI antibody ([2]; listed as factor D inhibitor): minimally inhibited
Inhibition of cell killing in the mHam induced by APS sera [3]: less so
Inhibition of cell killing in the mHam induced by APS sera ([3]; listed as ACH4471): did not prevent cell killing
Inhibition of mHam cell killing induced by CAPS sera [3]: partially blocked; also recorded: partially inhibited
Inhibition of mHam cell killing induced by CAPS sera ([3]; listed as factor D inhibitor): attenuated
